# Target: T1, Recombinant human GR (Homo sapiens, UniProt P04150)
# T1 construct: purchased Invitrogen P2816
# T1 sequence (P04150 1-777): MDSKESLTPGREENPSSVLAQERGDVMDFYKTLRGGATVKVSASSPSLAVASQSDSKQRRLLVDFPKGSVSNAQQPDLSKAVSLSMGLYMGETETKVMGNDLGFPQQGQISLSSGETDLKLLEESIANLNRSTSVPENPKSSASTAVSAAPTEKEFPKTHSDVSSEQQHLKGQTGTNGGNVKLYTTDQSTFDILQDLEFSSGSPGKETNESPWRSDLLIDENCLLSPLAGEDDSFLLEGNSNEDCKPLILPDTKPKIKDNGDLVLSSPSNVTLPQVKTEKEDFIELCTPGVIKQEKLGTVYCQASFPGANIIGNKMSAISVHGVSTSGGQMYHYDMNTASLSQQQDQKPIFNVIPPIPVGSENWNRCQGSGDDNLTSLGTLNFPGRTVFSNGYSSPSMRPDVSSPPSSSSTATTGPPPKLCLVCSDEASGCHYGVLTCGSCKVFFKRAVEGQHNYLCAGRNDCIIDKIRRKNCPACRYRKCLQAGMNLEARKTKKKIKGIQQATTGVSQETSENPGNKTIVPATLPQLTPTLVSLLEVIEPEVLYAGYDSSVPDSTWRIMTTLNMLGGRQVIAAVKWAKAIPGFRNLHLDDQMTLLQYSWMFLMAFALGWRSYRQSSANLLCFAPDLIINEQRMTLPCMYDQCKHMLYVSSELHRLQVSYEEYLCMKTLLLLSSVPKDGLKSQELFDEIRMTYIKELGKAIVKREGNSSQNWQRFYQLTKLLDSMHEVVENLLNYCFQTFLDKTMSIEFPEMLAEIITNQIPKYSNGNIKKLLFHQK
# Experiment: GR competitor assay (receptor competitor assay by fluorescence polarization, Invitrogen kit P2816)
# Details: 20 μM test compound solution (10 μL per well plus 5 μL 4×GS1 and 5 μL 4×GR); relative to 2 mM dexamethasone positive control; ratios of 100% or more are indicated by 100%; read-out: GR Binding ratio (%)
# Experimental: In order to evaluate a binding activity to GR, a receptor competitor assay was carried out by a fluorescence polarization method. In the assay, a GR competitor assay kit (manufactured by Invitrogen, cat No. P2816) was used, and a procedure was carried out according to the protocol attached to the kit. Hereinafter, the specific method will be described.
# GR screening buffer: A buffer containing 10 mM potassium phosphate (pH 7.4), 20 mM sodium molybdate (Na2MoO4), 0.1 mM ethylene diamine tetraacetic acid (EDTA), 5 mM dithiothreitol (DTT), 0.1 mM stabilizing peptide and 2% dimethylsulfoxide was prepared.
# 4×GS1 solution: Fluormone™ GS1, which is a fluorescent glucocorticoid ligand, was diluted with GR screening buffer, whereby a 4 nM solution was prepared.
# 4×GR solution: Recombinant human GR was diluted with GR screening buffer, whereby a 16 nM solution was prepared.
# After a test compound was dissolved in dimethylsulfoxide, the resulting solution was diluted with GR screening buffer, whereby a 20 μM test compound solution was prepared.
# 1) The test compound solution was added in an amount of 10 μL into each well of a 384-well plate, and then, 4×GS1 solution and 4×GR solution were added in an amount of 5 μL into each well, respectively.
# 2) The plate was incubated in a dark place at room temperature for 2 to 4 hours.
# 3) By using a multimode plate reader, Analyst™ HT (manufactured by LJL Biosystems), fluorescence polarization of each well was measured. As the blank, a well containing GR screening buffer in place of the test compound and 4×GS1 solution was used.
# 4) The same procedure as that in the above 1) to 3) was carried out except that GR screening buffer was used in place of the test compound solution, and the obtained result was taken as the negative control.
# 5) The same procedure as that in the above 1) to 3) was carried out except that 2 mM dexamethasone was used in place of the test compound solution, and the obtained result was taken as the positive control.
# A GR binding ratio (%) was calculated from the following equation. GR binding ratio(%)=100×[1−(fluorescence polarization of test compound solution−fluorescence polarization of positive control solution)/(fluorescence polarization of negative control solution fluorescence polarization of positive control solution)] (Test Results and Discussion)
row,SMILES,inhibition at 20 µM (stock) [%]
1,"COc1cc(OC(=O)c2ccccc2Cl)ccc1-c1ccc2c(c1COC(=O)c1ccc(C)s1)C(C)=CC(C)(C)N2 [Compound 1-15, 6-[4-(2-Chlorobenzoyloxy)-2-methoxyphenyl]-5-(5-methylthiophen-2-ylcarbonyloxymethyl)-2,2,4-trimethyl-1,2-dihydroquinoline]",91
2,"COc1cc(OC(=O)c2cccs2)ccc1-c1ccc2c(c1COC(=O)c1ccc(C)s1)C(C)=CC(C)(C)N2 [Compound 1-29, 6-[2-Methoxy-4-(thiophen-2-ylcarbonyloxy)phenyl]-5-(5-methylthiophen-2-ylcarbonyloxymethyl)-2,2,4-trimethyl-1,2-dihydroquinoline]",96
3,"CCS(=O)(=O)Oc1ccc(-c2ccc3c(c2COC(=O)c2ccc(C)s2)C(C)=CC(C)(C)N3)c(OC)c1 [Compound 2-7, 6-(4-Ethylsulfonyloxy-2-methoxyphenyl)-5-(5-methylthiophen-2-ylcarbonyloxymethyl)-2,2,4-trimethyl-1,2-dihydroquinoline]",100
4,"COc1ccc(C(=O)OCc2c(-c3ccc(OC(=O)c4ccco4)cc3OC)ccc3c2C(C)=CC(C)(C)N3)cc1 [Compound 1-36, 6-[4-(Furan-2-ylcarbonyloxy)-2-methoxyphenyl]-5-(4-methoxybenzoyloxymethyl)-2,2,4-trimethyl-1,2-dihydroquinoline]",100

# Next, values leading:
row,inhibition at 20 µM (stock) [%],SMILES
1,85,"COc1cc(OC(=O)c2cccc(Cl)c2)ccc1-c1ccc2c(c1COC(=O)c1ccc(C)s1)C(C)=CC(C)(C)N2 [Compound 1-16, 6-[4-(3-Chlorobenzoyloxy)-2-methoxyphenyl]-5-(5-methylthiophen-2-ylcarbonyloxymethyl)-2,2,4-trimethyl-1,2-dihydroquinoline]"
2,94,"COc1cc(OC(=O)c2ccsc2)ccc1-c1ccc2c(c1COC(=O)c1ccc(C)s1)C(C)=CC(C)(C)N2 [Compound 1-24, 6-[2-Methoxy-4-(thiophen-3-ylcarbonyloxy)phenyl]-5-(5-methylthiophen-2-ylcarbonyloxymethyl)-2,2,4-trimethyl-1,2-dihydroquinoline]"
3,91,"COc1ccc(C(=O)Oc2ccc(-c3ccc4c(c3COC(=O)c3ccc(C)s3)C(C)=CC(C)(C)N4)c(OC)c2)cc1 [Compound 1-22, 6-[2-Methoxy-4-(4-methoxybenzoyloxy)phenyl]-5-(5-methylthiophen-2-ylcarbonyloxymethyl)-2,2,4-trimethyl-1,2-dihydroquinoline]"
4,96,"COc1cc(OC(=O)c2cccnc2)ccc1-c1ccc2c(c1COC(=O)c1ccc(C)s1)C(C)=CC(C)(C)N2 [Compound 1-13, 6-[2-Methoxy-4-(pyridin-3-ylcarbonyloxy)phenyl]-5-(5-methylthiophen-2-ylcarbonyloxymethyl)-2,2,4-trimethyl-1,2-dihydroquinoline]"
5,93,"COc1cc(OC(=O)c2ccc(C)nc2)ccc1-c1ccc2c(c1COC(=O)c1ccc(C)s1)C(C)=CC(C)(C)N2 [Compound 1-2, 6-[2-Methoxy-4-(6-methylpyridin-3-ylcarbonyloxy)phenyl]-5-(5-methylthiophen-2-ylcarbonyloxymethyl)-2,2,4-trimethyl-1,2-dihydroquinoline]"

# Reference: patent US8563551B2, “Method for preventing or treating a disease related to the glucocorticoid receptor” (Santen Pharmaceutical Co., Ltd., priority 2006, dated 2013)
